PMC4334441 (Analytical biochemistry, 2013)
Read-outs that look alike come from different tables or passages of the source.

Columns and labels:
Type in all cases: biochemical
[1] = molecular target: mammalian-expressed ADAM17_ECD (Homo sapiens, UniProt P78536); test: Inhibition studies; conditions: comparison of insect- and mammalian-produced ADAM17_ECD
[2] = molecular target: insect-produced ADAM17 ECD (Homo sapiens, UniProt P78536); test: Inhibition kinetics; conditions: for Ki/Ki′ (alpha) / inhibition mechanism: insect-produced ADAM17 ECD; for Ki/Ki′ (alpha): mixed-model inhibition; for inhibition mechanism: confirmed by Lineweaver-Burke plots
[3] = molecular target: mammalian-produced ADAM17 ECD (Homo sapiens, UniProt P78536); test: Inhibition kinetics; conditions: for Ki/Ki′ (alpha) / inhibition mechanism: mammalian-produced ADAM17 ECD; for Ki/Ki′ (alpha): mixed-model inhibition; for inhibition mechanism: confirmed by Lineweaver-Burke plots
[4] = molecular target: insect-produced ADAM17_ECD (R&D Systems) (Homo sapiens, UniProt P78536); test: ADAM17 active site titration with MMP-9/-13 inhibitor, insect-produced ADAM17
Chain of insect-produced ADAM17_ECD (R&D Systems) (P78536 215-671 limits assumed): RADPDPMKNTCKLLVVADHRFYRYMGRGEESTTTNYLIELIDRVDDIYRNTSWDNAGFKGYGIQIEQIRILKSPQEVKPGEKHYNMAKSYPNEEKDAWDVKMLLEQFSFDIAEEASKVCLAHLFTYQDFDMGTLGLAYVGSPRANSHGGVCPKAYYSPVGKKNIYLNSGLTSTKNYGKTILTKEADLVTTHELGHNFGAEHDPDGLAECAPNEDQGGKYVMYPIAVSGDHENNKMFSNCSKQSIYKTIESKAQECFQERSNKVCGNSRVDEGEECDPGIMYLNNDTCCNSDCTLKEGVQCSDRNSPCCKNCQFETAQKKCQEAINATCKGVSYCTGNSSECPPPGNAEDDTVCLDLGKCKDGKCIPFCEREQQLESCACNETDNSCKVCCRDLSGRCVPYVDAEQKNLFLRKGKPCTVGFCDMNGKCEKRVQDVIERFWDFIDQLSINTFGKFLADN

Chain of insect-produced ADAM17 ECD (P78536 215-671 limits assumed): as above
Chain of mammalian-expressed ADAM17_ECD (P78536 215-651 limits assumed): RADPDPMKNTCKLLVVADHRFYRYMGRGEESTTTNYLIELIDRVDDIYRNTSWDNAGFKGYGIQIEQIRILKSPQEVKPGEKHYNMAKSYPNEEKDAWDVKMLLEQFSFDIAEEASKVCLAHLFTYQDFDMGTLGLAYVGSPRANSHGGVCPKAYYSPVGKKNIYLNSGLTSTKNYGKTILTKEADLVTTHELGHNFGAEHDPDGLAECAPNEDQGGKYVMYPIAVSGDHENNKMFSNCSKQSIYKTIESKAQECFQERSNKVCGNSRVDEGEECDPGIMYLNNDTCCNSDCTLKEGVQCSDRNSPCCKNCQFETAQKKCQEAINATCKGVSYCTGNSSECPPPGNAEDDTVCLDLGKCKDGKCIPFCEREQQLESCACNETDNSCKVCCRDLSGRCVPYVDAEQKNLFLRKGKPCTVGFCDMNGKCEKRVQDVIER
Chain of mammalian-produced ADAM17 ECD (P78536 215-651 limits assumed): as above

Structure (SMILES) | dose response curves for inhibition of insect- versus mammalian-expressed ADAM17 [1] | Ki [2] [nM] | Ki/Ki′ (alpha) [2] | inhibition mechanism ([2]; non-linear regression) | Ki [3] [nM] | Ki/Ki′ (alpha) [3] | inhibition mechanism ([3]; non-linear regression) | stoichiometry of ADAM17_ECD and MMP-9/-13 inhibitor (factor) ([4]; 10.5 nM divided by enzyme concentration 0.4 nM, Fig. 5B) | concentration of inhibitor necessary to produce 100% inhibition of ADAM17 ([4]; titration, enzyme concentration 0.4 nM, Fig. 5A) [nM] | Ki ([2]; insect-produced ADAM17, mixed inhibition model, non-linear regression) [nM] | Ki ([3]; mammalian-produced ADAM17, mixed inhibition model, non-linear regression) [nM]
CC(=O)NO [AHA, N-acetohydroxamic acid] | superimposable | – | – | – | – | – | – | – | – | – | –
COc1ccc(S(=O)(=O)N2CCN(C(=O)c3ccc(-c4ccccc4)cc3)CC2C(=O)NO)cc1 (centres unmarked) [MMP-9/-13 inhibitor, N-hydroxy-1-(4-methoxyphenyl)sulfonyl-4-(4-biphenylcarbonyl)piperazine-2-carboxamide] | superimposable | 3.1 ± 0.2 | 0.91 ± 0.26 | pure non-competitive inhibition | 1.8 ± 0.1 | 0.99 ± 0.34 | pure non-competitive inhibition | 26.3 | 10.5 | – | –
CC(C)C[C@H](CC(=O)NO)C(=O)N[C@H](C(=O)N[C@@H](C)C(=O)NCCN)C(C)(C)C [TAPI-2] | superimposable | – | 1.76 ± 0.42 | mixed inhibition | – | 2.27 ± 0.55 | mixed inhibition | – | – | 31 ± 1.4 | 32 ± 5
